{"source": "ChEMBL document CHEMBL1201862", "about": "“PubChem BioAssay data set” (2004)", "test_in_all_cases": "NCI anticancer screen, dose series, 48 h", "key": {"[1]": {"tested_on": "A498"}, "[2]": {"tested_on": "A549"}, "[3]": {"tested_on": "ACHN"}, "[4]": {"tested_on": "DMS-114"}, "[5]": {"tested_on": "EKVX"}, "[6]": {"tested_on": "HCT-116"}, "[7]": {"tested_on": "HL-60"}, "[8]": {"tested_on": "HOP-62"}, "[9]": {"tested_on": "HOP-92"}, "[10]": {"tested_on": "HT-29"}, "[11]": {"tested_on": "IGROV-1"}, "[12]": {"tested_on": "KM12"}, "[13]": {"tested_on": "M14"}, "[14]": {"tested_on": "M19-MEL"}, "[15]": {"tested_on": "NCI-H226"}, "[16]": {"tested_on": "NCI-H23"}, "[17]": {"tested_on": "NCI-H460"}, "[18]": {"tested_on": "OVCAR-5"}, "[19]": {"tested_on": "OVCAR-8"}, "[20]": {"tested_on": "RXF 393"}, "[21]": {"tested_on": "SF-295"}, "[22]": {"tested_on": "SK-MEL-28"}, "[23]": {"tested_on": "SK-OV-3"}, "[24]": {"tested_on": "SNB-19"}, "[25]": {"tested_on": "SNB-78"}, "[26]": {"tested_on": "SR"}, "[27]": {"tested_on": "TK-10"}, "[28]": {"tested_on": "U-251"}, "[29]": {"tested_on": "UACC-257"}, "[30]": {"tested_on": "UACC-62"}, "[31]": {"tested_on": "UO-31"}, "[32]": {"tested_on": "786-0"}, "[33]": {"tested_on": "BT-549"}, "[34]": {"tested_on": "CAKI-1"}, "[35]": {"tested_on": "CCRF-CEM"}, "[36]": {"tested_on": "COLO 205"}, "[37]": {"tested_on": "DU-145"}, "[38]": {"tested_on": "HCC 2998"}, "[39]": {"tested_on": "HCT-15"}, "[40]": {"tested_on": "Hs-578T"}, "[41]": {"tested_on": "K562"}, "[42]": {"tested_on": "LOX IMVI"}, "[43]": {"tested_on": "MCF7"}, "[44]": {"tested_on": "MDA-MB-231"}, "[45]": {"tested_on": "MDA-MB-435"}, "[46]": {"tested_on": "MDA-N"}, "[47]": {"tested_on": "MOLT-4"}, "[48]": {"tested_on": "Malme-3M"}, "[49]": {"tested_on": "NCI-H522"}, "[50]": {"tested_on": "NCI/ADR-RES"}, "[51]": {"tested_on": "OVCAR-3"}, "[52]": {"tested_on": "OVCAR-4"}, "[53]": {"tested_on": "PC-3"}, "[54]": {"tested_on": "RPMI-8226"}, "[55]": {"tested_on": "SF-268"}, "[56]": {"tested_on": "SF-539"}, "[57]": {"tested_on": "SK-MEL-2"}, "[58]": {"tested_on": "SK-MEL-5"}, "[59]": {"tested_on": "SN12C"}, "[60]": {"tested_on": "SNB-75"}, "[61]": {"tested_on": "SW-620"}, "[62]": {"tested_on": "T47D"}, "[63]": {"tested_on": "HOP-18"}}, "note": "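Grown in 96-well plates, cells were treated for 48 hours with each compound at five concentrations. Insufficient inhibition: endpoint recorded as highest concentration tested. GI50 is the concentration that inhibits growth by half.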 The source made the active and inactive calls. Rule as the data show it: active = GI50 up to about 1.1 µM and inactive = higher.", "data": [{"smiles": "COc1cc(O)c2c(c1C)C(C)(O)c1c(C)coc1C2=O", "note": "(configuration not stated)", "values": [{"measurement": "GI50", "setting": "[1]", "value": "89.7 µM (inactive)"}, {"measurement": "GI50", "setting": "[2]", "value": "> 100 µM (inactive)"}, {"measurement": "GI50", "setting": "[3]", "value": "> 100 µM (inactive)"}, {"measurement": "GI50", "setting": "[4]", "value": "> 100 µM (inactive)"}, {"measurement": "GI50", "setting": "[5]", "value": "> 100 µM (inactive)"}, {"measurement": "GI50", "setting": "[6]", "value": "> 100 µM (inactive)"}, {"measurement": "GI50", "setting": "[7]", "value": "57.7 µM (inactive)"}, {"measurement": "GI50", "setting": "[8]", "value": "> 100 µM (inactive)"}, {"measurement": "GI50", "setting": "[9]", "value": "> 100 µM (inactive)"}, {"measurement": "GI50", "setting": "[10]", "value": "> 100 µM (inactive)"}, {"measurement": "GI50", "setting": "[11]", "value": "> 100 µM (inactive)"}, {"measurement": "GI50", "setting": "[12]", "value": "> 100 µM (inactive)"}, {"measurement": "GI50", "setting": "[13]", "value": "> 100 µM (inactive)"}, {"measurement": "GI50", "setting": "[14]", "value": "> 100 µM (inactive)"}, {"measurement": "GI50", "setting": "[15]", "value": "99.8 µM (inactive)"}, {"measurement": "GI50", "setting": "[16]", "value": "> 100 µM (inactive)"}, {"measurement": "GI50", "setting": "[17]", "value": "> 100 µM (inactive)"}, {"measurement": "GI50", "setting": "[18]", "value": "> 100 µM (inactive)"}, {"measurement": "GI50", "setting": "[19]", "value": "> 100 µM (inactive)"}, {"measurement": "GI50", "setting": "[20]", "value": "> 100 µM (inactive)"}, {"measurement": "GI50", "setting": "[21]", "value": "> 100 µM (inactive)"}, {"measurement": "GI50", "setting": "[22]", "value": "> 100 µM (inactive)"}, {"measurement": "GI50", "setting": "[23]", "value": "> 100 µM (inactive)"}, {"measurement": "GI50", "setting": "[24]", "value": "> 100 µM (inactive)"}, {"measurement": "GI50", "setting": "[25]", "value": "> 100 µM (inactive)"}, {"measurement": "GI50", "setting": "[26]", "value": "> 100 µM (inactive)"}, {"measurement": "GI50", "setting": "[27]", "value": "> 100 µM (inactive)"}, {"measurement": "GI50", "setting": "[28]", "value": "> 100 µM (inactive)"}, {"measurement": "GI50", "setting": "[29]", "value": "> 100 µM (inactive)"}, {"measurement": "GI50", "setting": "[30]", "value": "74.1 µM (inactive)"}, {"measurement": "GI50", "setting": "[31]", "value": "> 100 µM (inactive)"}]}, {"smiles": "CC(C)(C)OC(=O)NC1CC2(C=C(Br)C(=O)C(Br)=C2)OC1=O", "note": "(configuration not stated)", "values": [{"measurement": "GI50", "setting": "[32]", "value": "2.72 µM (inactive)"}, {"measurement": "GI50", "setting": "[1]", "value": "23.3 µM (inactive)"}, {"measurement": "GI50", "setting": "[2]", "value": "20.2 µM (inactive)"}, {"measurement": "GI50", "setting": "[3]", "value": "4.23 µM (inactive)"}, {"measurement": "GI50", "setting": "[33]", "value": "16.5 µM (inactive)"}, {"measurement": "GI50", "setting": "[34]", "value": "3.48 µM (inactive)"}, {"measurement": "GI50", "setting": "[35]", "value": "0.165 µM (active)"}, {"measurement": "GI50", "setting": "[36]", "value": "3.59 µM (inactive)"}, {"measurement": "GI50", "setting": "[37]", "value": "13 µM (inactive)"}, {"measurement": "GI50", "setting": "[5]", "value": "12.9 µM (inactive)"}, {"measurement": "GI50", "setting": "[38]", "value": "11.6 µM (inactive)"}, {"measurement": "GI50", "setting": "[6]", "value": "3.28 µM (inactive)"}, {"measurement": "GI50", "setting": "[39]", "value": 7.13, "unit": "µM"}, {"measurement": "GI50", "setting": "[7]", "value": "2.47 µM (inactive)"}, {"measurement": "GI50", "setting": "[8]", "value": "18.7 µM (inactive)"}, {"measurement": "GI50", "setting": "[9]", "value": "12.5 µM (inactive)"}, {"measurement": "GI50", "setting": "[10]", "value": "5.74 µM (inactive)"}, {"measurement": "GI50", "setting": "[40]", "value": "22 µM (inactive)"}, {"measurement": "GI50", "setting": "[11]", "value": "16.4 µM (inactive)"}, {"measurement": "GI50", "setting": "[41]", "value": "2.56 µM (inactive)"}, {"measurement": "GI50", "setting": "[12]", "value": "20.9 µM (inactive)"}, {"measurement": "GI50", "setting": "[42]", "value": "13 µM (inactive)"}, {"measurement": "GI50", "setting": "[13]", "value": "7.14 µM (inactive)"}, {"measurement": "GI50", "setting": "[43]", "value": "11.6 µM (inactive)"}, {"measurement": "GI50", "setting": "[44]", "value": "17.7 µM (inactive)"}, {"measurement": "GI50", "setting": "[45]", "value": "7.71 µM (inactive)"}, {"measurement": "GI50", "setting": "[46]", "value": "5.74 µM (inactive)"}, {"measurement": "GI50", "setting": "[47]", "value": "0.401 µM (active)"}, {"measurement": "GI50", "setting": "[48]", "value": "6.24 µM (inactive)"}, {"measurement": "GI50", "setting": "[15]", "value": "18.1 µM (inactive)"}, {"measurement": "GI50", "setting": "[16]", "value": "7.85 µM (inactive)"}, {"measurement": "GI50", "setting": "[17]", "value": "18.4 µM (inactive)"}, {"measurement": "GI50", "setting": "[49]", "value": "1.73 µM (inactive)"}, {"measurement": "GI50", "setting": "[50]", "value": "14.8 µM (inactive)"}, {"measurement": "GI50", "setting": "[51]", "value": "10.4 µM (inactive)"}, {"measurement": "GI50", "setting": "[52]", "value": "9.84 µM (inactive)"}, {"measurement": "GI50", "setting": "[18]", "value": "18.3 µM (inactive)"}, {"measurement": "GI50", "setting": "[19]", "value": "7.14 µM (inactive)"}, {"measurement": "GI50", "setting": "[53]", "value": "13.9 µM (inactive)"}, {"measurement": "GI50", "setting": "[54]", "value": "0.968 µM (active)"}, {"measurement": "GI50", "setting": "[20]", "value": "3.58 µM (inactive)"}, {"measurement": "GI50", "setting": "[55]", "value": "17.4 µM (inactive)"}, {"measurement": "GI50", "setting": "[21]", "value": "16.4 µM (inactive)"}, {"measurement": "GI50", "setting": "[56]", "value": "18.7 µM (inactive)"}, {"measurement": "GI50", "setting": "[22]", "value": "21.1 µM (inactive)"}, {"measurement": "GI50", "setting": "[57]", "value": "16 µM (inactive)"}, {"measurement": "GI50", "setting": "[58]", "value": "16.4 µM (inactive)"}, {"measurement": "GI50", "setting": "[23]", "value": "17.3 µM (inactive)"}, {"measurement": "GI50", "setting": "[59]", "value": "7.33 µM (inactive)"}, {"measurement": "GI50", "setting": "[24]", "value": "20.7 µM (inactive)"}, {"measurement": "GI50", "setting": "[60]", "value": "21.5 µM (inactive)"}, {"measurement": "GI50", "setting": "[26]", "value": "0.955 µM (active)"}, {"measurement": "GI50", "setting": "[61]", "value": "2.01 µM (inactive)"}, {"measurement": "GI50", "setting": "[62]", "value": "0.536 µM (active)"}, {"measurement": "GI50", "setting": "[27]", "value": "5.38 µM (inactive)"}, {"measurement": "GI50", "setting": "[28]", "value": "17.4 µM (inactive)"}, {"measurement": "GI50", "setting": "[29]", "value": "5.4 µM (inactive)"}, {"measurement": "GI50", "setting": "[30]", "value": "17.6 µM (inactive)"}, {"measurement": "GI50", "setting": "[31]", "value": "5.27 µM (inactive)"}]}, {"smiles": "COc1cc(C2c3cc4c(cc3[C@@H](NCCCN3CCCC3=O)C3COC(=O)[C@H]23)OCO4)cc(OC)c1O", "note": "(some centres not stated)", "values": [{"measurement": "GI50", "setting": "[3]", "value": "2.92 µM (inactive)"}, {"measurement": "GI50", "setting": "[36]", "value": "4.17 µM (inactive)"}, {"measurement": "GI50", "setting": "[63]", "value": "> 17.5 µM (inactive)"}, {"measurement": "GI50", "setting": "[48]", "value": "0.405 µM (active)"}, {"measurement": "GI50", "setting": "[16]", "value": "0.515 µM (active)"}, {"measurement": "GI50", "setting": "[49]", "value": "0.319 µM (active)"}, {"measurement": "GI50", "setting": "[56]", "value": "0.393 µM (active)"}]}]}
